# Data from patent US4965273A, “Certain 1-tertiary-butyl-naphthyridone carboxylic acid derivatives anti-bacterial agents” (priority 1988, dated 1990).
# What was measured:
# [1] = from Tables 2, 3 and 4
# [2] = test system: Escherichia coli; assay: Minimum inhibitory concentration (MIC), microtitration dilution method of Heifetz et al.; format: cell-based; conditions: Table 2
# Method: (§1) The compounds of this invention display antibacterial activity when tested by the microtitration dilution method reported by Heifetz et al., Antimicr. Agents & Chemoth., 6. 124 (1974). Minimum inhibitory concentrations (MICs, in μg/ml) for but a few representative compounds according to this invention were determined by the above-mentioned method.
# [3] = test system: Klebsiella oxytoca; assay: as above; format: cell-based; conditions: Table 2
# Method: as §1
# [4] = test system: Pseudomonas aeruginosa; assay: as above; format: cell-based; conditions: Table 2
# Method: as §1
# [5] = test system: Staphylococcus aureus; assay: as above; format: cell-based; conditions: Table 2
# Method: as §1
# [6] = test system: Streptococcus faecalis; assay: as above; format: cell-based
# Method: as §1
# [7] = test system: Streptococcus faecium; assay: as above; format: cell-based; conditions: Table 2
# Method: as §1
# [8] = test system: Enterobacter cloacae; assay: as above; format: cell-based; set-up: unit not given here; conditions: Table 2
compound,measurement,setting,value
"CC(C)(C)n1cc(C(=O)O)c(=O)c2cc(F)c(N3C[C@H]4C[C@@H]3CN4)nc21 [Example 30, 7-(1R,4R-2,5-diazabicyclo[2.2.1]heptan-2-yl)-1-(1,1-dimethylethyl)-1,4-dihydro-6-fluoro-4-oxo-1,8-naphthyridine-3-carboxylic acid]","combination of anti-bacterial, toxicity, and water-solubility properties",[1],highly advantageous combination of the above mentioned properties
"CC(C)(C)n1cc(C(=O)O)c(=O)c2cc(F)c(N3C[C@@H]4CC[C@H]3CN4)nc21 [Example 23, 7-(1S,4S-2,5-diazabicyclo[2.2.2]octan-2-yl)-1-(1,1-dimethylethyl)-1,4-dihydro-6-fluoro-4-oxo-1,8-naphthyridine-3-carboxylic acid]",MIC E. coli,[2],0.13 µg/mL
same,MIC K. oxyto.,[3],0.5 µg/mL
same,MIC P. aer.,[4],1.0 µg/mL
same,MIC S. aur.,[5],0.03 µg/mL
same,MIC S. faecal.,"[6]; Table 2, Streptococcus faecalis",0.5 µg/mL
same,MIC S. faeci.,[7],2.0 µg/mL
same,MIC E. clo.,[8],0.06
"O=C(O)c1cn(C2CC2)c2cc(N3CCNCC3)c(F)cc2c1=O [Cip., 1-cyclopropyl-6-fluoro-1,4-dihydro-7-(1-piperazinyl)-4-oxo-quinoline-3-carboxylic acid, reference compound]",MIC,"[6]; Enterococcus faecalis, read-out: MIC S. faecal.",0.5 µg/mL
